Reference: PMC8151276, “An Integrated Approach toward NanoBRET Tracers for Analysis of GPCR Ligand Engagement” (Molecules, 2021)

Biological target: T1, ADRA1B (Homo sapiens, UniProt P35368)
T1 construct: purchased Promega (in-house HiBiT-GPCR construct library, NanoBRET)
T1 sequence (P35368 1-520): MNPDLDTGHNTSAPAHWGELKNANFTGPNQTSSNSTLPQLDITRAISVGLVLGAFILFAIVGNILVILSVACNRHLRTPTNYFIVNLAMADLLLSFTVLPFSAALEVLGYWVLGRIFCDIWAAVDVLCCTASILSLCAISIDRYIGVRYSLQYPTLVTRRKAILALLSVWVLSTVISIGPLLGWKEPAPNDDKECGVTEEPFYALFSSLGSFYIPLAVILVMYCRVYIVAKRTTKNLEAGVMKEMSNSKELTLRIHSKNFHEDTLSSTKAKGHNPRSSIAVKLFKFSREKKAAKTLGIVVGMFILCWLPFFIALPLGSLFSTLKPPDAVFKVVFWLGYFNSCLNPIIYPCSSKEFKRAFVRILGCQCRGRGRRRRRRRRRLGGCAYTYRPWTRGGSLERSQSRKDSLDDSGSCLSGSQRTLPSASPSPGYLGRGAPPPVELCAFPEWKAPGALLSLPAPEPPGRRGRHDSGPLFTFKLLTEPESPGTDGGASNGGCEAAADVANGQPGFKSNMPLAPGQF
Test: NanoBRET screen HiBiT-ADRA1B in HEK293
Type: binding
Procedure: Each tracer candidate was screened across the entire library of HiBiT-GPCR constructs using NanoBRET as the detection modality. As depicted in Figure 4A, the specificity of interactions was evaluated through decrease in BRET due to competitive displacement of a bound tracer by excess parental compound. Each tracer was analyzed for binding to each HiBiT-GPCR fusion in the absence and in the presence of competing parental compound. Briefly, HEK293 cells were transfected with HiBiT-GPCR constructs diluted into promoterless DNA to reduce expression and maximize translocation to the cell surface. Each tracer candidate was then screened at concentrations of 1 μM and 0.1 μM across cells expressing these fusions. Cells were treated for 1.5 h with tracer either alone or in the presence of 20 μM competing parental compound (i.e., control). BRET was measured upon addition of purified LgBiT and subsequent complementation with HiBiT genetically fused to a GPCR. The specificity of interactions was assessed through a decrease in BRET signal due to competitive displacement of the bound tracer. To further gauge the robustness of these interactions, the fold response over the control (i.e., BRETtracer/BRETcontrol) was calculated. We chose a 1.5-fold response, which translates to ≥7-fold signal over noise as the minimal threshold required to score an interaction as positive.
HiBiT-GPCR DNA constructs were diluted in 10 mM Tris pH 8 to a final concentration of 0.01 μg/μL, arrayed in 96-well plates and stored at −20 °C. For transfection, HEK293 cells were suspended in Opti-MEM (without phenol red) supplemented with 2% fetal bovine serum (Seradigm) and 100 units/mL penicillin–streptomycin (Gibco) at a final concentration of 220,000 cells/mL and dispensed into white 96-well plates at 90 μL/well. Subsequent transfections and screens were carried using an Agilent Bravo Automated Liquid Handling Platform. First, the 96-well HiBiT DNA arrays were diluted 25-fold in Opti-MEM (without serum or phenol red) to a final concentration of 0.0004 μg/μL and 20 μL of the diluted DNAs were transferred into new 96-well plates. Next, promoterless carrier DNA (1 μg/μL) was diluted 25-fold (0.04 μg/μL) and then dispensed into the diluted arrays at 20 μL/well. Following brief mixing, Viafect transfection reagent (Promega) diluted 16-fold into Opti-MEM was dispensed into the plates at 40 μL/well. After mixing by pipetting, plates were incubated for 10 min on the pipetting station deck. The DNA-transfection reagent complexes were then added to plates containing cells. To facilitate the screen, 10 μL of DNA-transfection reagent complexes were added in duplicates to the top 4 and bottom 4 rows, resulting in two identical 48-well arrays per plate. Plates with transfected cells were incubated for 18–20 h at 37 °C/5% CO2. A screen of each tracer across the entire library using two different concentrations requires duplicate plates of transfected cells. Depending on the number of tracers being screened, transfections can be scaled up using the same ratios. The next day, for each tracer, four 20× screening solutions in tracer dilution buffer (Promega) were prepared: two duplicates at final concentration of 20 μM and two duplicates at a final concentration of 2 μM. […] The four resulting solutions were diluted 4-fold in Opti-MEM without serum or phenol red to generate 5× solutions (5 µM and 0.5 µM tracer +/− 100 μM competing compound). To screen the library, a BioTek MultiFlo FX liquid dispenser was used to dispense 22.5 µL of tracer solution to the top 4 rows and 22.5 µL tracer + competing compound solution to the 4 bottom rows. Plates were briefly mixed on an orbital shaker and incubated for 1.5 h at room temperature. […] Plates were briefly mixed on an orbital shaker and incubated for 15 min to allow complementation.

Row | SMILES | NanoBRET Fold Response (ADRA1B, tracer 0.1μM) | NanoBRET Fold Response (ADRA1B, tracer 1μM) | further results
1 | CCOC(=O)c1cc(C#N)c(N2CCC(C(=O)NS(=O)(=O)Cc3ccccc3/C=C/C(=O)NCCNC(=O)CCc3ccc4n3[B-](F)(F)[N+]3=C(c5ccc[nH]5)C=CC3=C4)CC2)nc1C [AZD1283-1-NB590] | – | – | NanoBRET Fold Response (ADRA1B, 0.1μM): 1.08; NanoBRET Fold Response (ADRA1B, 1μM): 1.06
2 | N#CN/C(=N\CCNC(=O)c1ccc(N)cc1)NCCCOc1cccc(CN2CCCCC2)c1 [Aminopotentidine (unmodified)] | – | – | NanoBRET Fold Response (ADRA1B, other tracers/Aminopotentidine (unmodified), 0.1μM): 1.03; NanoBRET Fold Response (ADRA1B, other tracers/Aminopotentidine (unmodified), 1μM): 0.99
3 | N#CN=C(NCCCOc1cccc(CN2CCCCC2)c1)NCCNC(=O)CCOCCOCCOCCOCCNC(=O)CCc1ccc2n1[B-](F)(F)[N+]1=C(c3ccc[nH]3)C=CC1=C2 [Aminopotentidine-2-NB590] | 1.10 | 1.01 | –
4 | CN(C)CCC=C1c2ccccc2CCc2ccc(C(=O)NCCNC(=O)CCOCCOCCOCCOCCNC(=O)CCc3ccc4n3[B-](F)(F)[N+]3=C(c5ccc[nH]5)C=CC3=C4)cc21 [Amitriptyline-a-2-NB590] | – | – | NanoBRET Fold Response (tracer at 0.1μM): 1.19; NanoBRET Fold Response (tracer at 1μM): 1.46
5 | CN(C)CCC=C1c2ccccc2CCc2ccc(C(=O)NCCNC(=O)CCOCCOCCOCCOCCNC(=O)CCc3ccc4n3[B-](F)(F)[N+]3=C(c5ccc[nH]5)C=CC3=C4)cc21 [Amitriptyline-b-2-NB590] | – | – | NanoBRET Fold Response (tracer at 0.1μM, listed as amitriptyline-b-2-NB590): 1.73; NanoBRET Fold Response (tracer at 1μM, listed as amitriptyline-b-2-NB590): 1.67
6 | CN(CCC=C1c2ccccc2CCc2ccccc21)C(=O)CCOCCOCCOCCOCCNC(=O)CCc1ccc2n1[B-](F)(F)[N+]1=C(c3ccc[nH]3)C=CC1=C2 [Amitriptyline-e-2-NB590] | – | – | NanoBRET Fold Response (tracer at 1μM): 1.04
7 | COc1ccc2c(n1)c(CCNC(C)=O)cn2CCNC(=O)CCc1ccc2n1[B-](F)(F)[N+]1=C(c3ccc[nH]3)C=CC1=C2 [Azamelatonin-1-NB590] | – | – | NanoBRET Fold Response (0.1μM tracer): 0.97; NanoBRET Fold Response (1μM tracer): 0.88
8 | COc1ccc2[nH]c(-c3ccc(CNC(=O)CCOCCOCCOCCOCCNC(=O)CCc4ccc5n4[B-](F)(F)[N+]4=C(c6ccc[nH]6)C=CC4=C5)cc3)c(CCNC(C)=O)c2n1 [AzomelatoninICO9-2-NB590] | – | – | NanoBRET Fold Response (0.1μM tracer): 0.91; NanoBRET Fold Response (1μM tracer): 0.97
9 | O=C(CCOCCOCCOCCOCCNC(=O)CCc1ccc2n1[B-](F)(F)[N+]1=C(c3ccc[nH]3)C=CC1=C2)NCCCN1CCN(C2=Nc3cc(Cl)ccc3Nc3ccccc32)CC1 [Clozapine-a-2-NB590] | – | – | NanoBRET Fold Response (ADRA1B, 0.1μM tracer): 1.65; NanoBRET Fold Response (ADRA1B, 1μM tracer): 1.52
10 | O=C(CCOCCOCCOCCOCCNC(=O)CCc1ccc2n1[B-](F)(F)[N+]1=C(c3ccc[nH]3)C=CC1=C2)NCCCN1CCN(C2=Nc3ccccc3Oc3ccc(Cl)cc32)CC1 [Loxapine-a-2-NB590] | 1.78 | 1.54 | –
11 | COc1ccccc1N1CCN(CCCCN2C(=O)c3ccc(CNC(=O)CCOCCOCCOCCOCCNC(=O)CCc4ccc5n4[B-](F)(F)[N+]4=C(c6ccc[nH]6)C=CC4=C5)cc3C2=O)CC1 [NAN-190-2-NB590] | 1.80 | 1.59 | –
12 | COc1ccccc1N1CCN(CCCCN2C(=O)c3ccc(CNC(=O)CCOCCNC(=O)c4ccc(CNC(=O)CCc5ccc6n5[B-](F)(F)[N+]5=C(c7ccc[nH]7)C=CC5=C6)cc4)cc3C2=O)CC1 [NAN-190-3-NB590] | 1.70 | 1.72 | –
13 | O=C(CCc1ccc2n1[B-](F)(F)[N+]1=C(c3ccc[nH]3)C=CC1=C2)NCc1ccc(C(=O)NCCOCCC(=O)N[C@@H]2CC[C@@]3(O)[C@H]4Cc5ccc(O)c6c5[C@@]3(CCN4CC3CC3)[C@H]2O6)cc1 [Naltrexone-3-NB590] | 0.53 | 0.79 | –
14 | Cc1cc2c(s1)Nc1ccccc1N=C2N1CCN(CCCNC(=O)CCOCCOCCOCCOCCNC(=O)CCc2ccc3n2[B-](F)(F)[N+]2=C(c4ccc[nH]4)C=CC2=C3)CC1 [Olanzapine-a-2-NB590] | 1.26 | 1.98 | –
15 | O=C(CCc1ccc2n1[B-](F)(F)[N+]1=C(c3ccc[nH]3)C=CC1=C2)NCc1ccc(C(=O)NCCOCCOCCNCC(O)COc2cccc3ccccc23)cc1 (stereo not shown) [Propranolol-3-NB590] | – | – | NanoBRET Fold Response (ADRA1B, 0.1μM): 1.14; NanoBRET Fold Response (ADRA1B, 1μM): 1.10
16 | O=C(CCc1ccc2n1[B-](F)(F)[N+]1=C(c3ccc[nH]3)C=CC1=C2)NCCOCCOCCNC(=O)OCCOCCN1CCN(C2=Nc3ccccc3Sc3ccccc32)CC1 [Quetiapine-a-2-NB590] | 1.52 | 1.59 | –
17 | CC(C)N(CC[C@H](c1ccccc1)c1cc(CCNC(=O)CCOCCOCCOCCOCCNC(=O)CCc2ccc3n2[B-](F)(F)[N+]2=C(c4ccc[nH]4)C=CC2=C3)ccc1O)C(C)C [Tolterodine-2-NB590] | 1.16 | 1.06 | –
18 | CC(C)N(CC[C@H](c1ccccc1)c1cc(CCNC(=O)c2ccc(CNC(=O)CCc3ccc4n3[B-](F)(F)[N+]3=C(c5ccc[nH]5)C=CC3=C4)cc2)ccc1O)C(C)C [Tolterodine-BZ-NB590] | 1.17 | 1.05 | –
19 | CCCn1c(=O)c2[nH]c(-c3ccc(OCC(=O)NCCNC(=O)CCOCCNC(=O)c4ccc(CNC(=O)CCc5ccc6n5[B-](F)(F)[N+]5=C(c7ccc[nH]7)C=CC5=C6)cc4)cc3)nc2n(CCC)c1=O [XAC-3-NB590] | 1.05 | 1.17 | –
